The subject of one assay is A375 (BRAF V600E). Description: Cell proliferation MTT assay. Format: cell-based. As to conditions: Homo sapiens. As for the experimental part:
(§1) The synergism and antagonism (CI value) were determined and analyzed using CompuSyn 1.0.
(§2) For cytotoxicity test, normal NHDF (5000 cells/well) and NHEM cell line (3000 cells/well) were planted into 96-well plates. For cell proliferation assay, A375 (1500 cells/well), SK-MEL-28 (3000 cells/well), SK-MEL-2 (4000 cells/well), and HCT116 (1500 cells/well) were planted into 96-well plates, determined concentration of drug was added after culture for 24 h. The viability of the cells was detected within 72 h using MTT solution (5 mg/mL). The absorbance at 570/490 nm was quantified by the use of the microplate reader.
A general note: Tetrazolium assays rely on reduction of a dye to a coloured formazan, in cell work by metabolically active cells.

The next assay relates to HCT116 (KRAS mut). The experiment in a line: Cell proliferation MTT assay. As to conditions: Homo sapiens, HCT-116; MTT, 72 h; read-out: IC50. It is filed as cell-based. As for the experimental part:
as §1, §2

The next assay relates to SK-MEL-2 (NRAS mut). Description: Cell proliferation MTT assay. As to conditions: Homo sapiens, SK-MEL-2; MTT, 72 h; read-out: IC50. Format: cell-based. As for the experimental part: as §1, §2
For another assay, the system named is SK-MEL-28 (BRAF V600E). Description: Cell proliferation MTT assay. Format: cell-based. As to conditions: Homo sapiens. As for the experimental part: as §1, §2
The subject of the next assay is A375 (BRAF V600E) CDX. The experiment in a line: Cell-derived xenograft (CDX). As to conditions: 50 mg/kg, oral gavage, vs vehicle-treated group. As for the experimental part: (§3) Tumor volume (mm^3) = (length × width × height) × 0.52. SK-MEL-2: n = 10; A375 and SK-MEL-28: n = 8; HCT116: n = 9. b The photographs show tumors from CDX mice treated with vehicle, erianin, vemurafenib, or the combination. c The weight of the tumors was quantified and expressed as the treatment groups compared with the vehicle-treated group. […] The tissue lysates were prepared from CDX tumor tissues in each treatment group. […] Each point represents the IOD values of four quantified data from one mouse. Scale bars: 50 μm.
(§4) The animal experiments were performed according to the guidelines approved by the Zhengzhou University Institutional Animal Care and Use Committee. A375 cell line (1 × 10^7 cell/mouse), SK-MEL-28 cell line (5 × 10^6 cell/mouse), SK-MEL-2 cell (5 × 10^6 cell/mouse), and HCT116 cell line (1 × 10^7 cell/mouse) were injected subcutaneously into the NOD-SCID mice (Vital River Labs, Beijing, China). For the melanoma PDX mice model, the tumor was taken after surgical operation and implanted into the NPG (Vital River Labs, Beijing, China) mice under a sterile environment. For the colorectal cancer PDX mice model, NOD-SCID mice were selected as carriers for tumor growth. The measurement of tumor size was performed twice a week using vernier caliper and the calculation of tumor volume was done according to tumor volume (mm^3) = length × width × height × 0.52.

Assay [1] relates to SK-MEL-28 (BRAF V600E) CDX. The experiment in a line: Cell-derived xenograft (CDX). The conditions noted are these: 50 mg/kg, oral gavage, vs vehicle-treated group. As for the experimental part: as §3, §4
A further assay deals with HCT116 (KRAS mut) CDX. The experiment in a line: Cell-derived xenograft (CDX). It is filed as in vivo, NOD-SCID mice. As to conditions: 50 mg/kg, oral gavage. As for the experimental part: as §3, §4
For another assay, the system named is SK-MEL-2 (NRAS mut) CDX. The experiment in a line: Cell-derived xenograft (CDX). Format: in vivo, NOD-SCID mice. The conditions noted are these: 50 mg/kg, oral gavage. As for the experimental part: as §3, §4
A further assay concerns melanoma PDX. Description: Patient-derived xenograft (PDX). Format: in vivo. As to conditions: oral gavage; erianin, vemurafenib 50 mg/kg once a day; cobimetinib 5 mg/kg twice a week; within 78 days. As for the experimental part: Fig. 7 Erianin exerts antitumor efficacy in melanoma and colorectal cancer in vivo. a Tumor pharmacodynamic assay was performed in tumor-bearing NPG mice (tumor has been passaged from melanoma patient to mice for three generations). The photographs show tumors from melanoma PDX mice treated with vehicle or drugs. b The effect of erianin on the volume of PDX tumors over time (within 78 days) was plotted. Vehicle, erianin (50 mg/kg, once a day), vemurafenib (50 mg/kg, once a day), erianin and vemurafenib combination therapy, cobimetinib (5 mg/kg, twice a week) or vemurafenib and cobimetinib combination therapy (once a day and twice a week, respectively) were administered by oral gavage, n = 8 in each group. Tumor volume was measured once a week. […] Scale bars: 20 μm. One-way ANOVA test. ***p < 0.001. e Antitumor efficacy of erianin with or without immunity using B16F10 cell xenograft in C57BL-6J mouse. f, g Trend of tumor volume over time and tumor weight was measured after treatment on the last day of the study.
A general note: In xenograft studies the graft and the host belong to different species.

Assay [2] deals with MAPK signaling pathway (phospho-CRAF, phospho-MEK1/2, phospho-ERK1/2). Description: Western blotting of MAPK signaling pathway in cells.
Description: Data were shown as means ± S.D. of three independent experiments. The asterisks (*p < 0.05, **p < 0.01, ***p < 0.001) indicate a significant difference in the expression of phosphorylation of ERK1 or ERK2 vs total ERK1 or ERK2 in control and erianin-treated group. g The luminescent ADP detection assay was developed to detect the luminescence signal of ATP-to-ADP using the same concentration kinases and substrates described in above kinase assay.
Protein was quantified using a BCA assay kit and then western blotting was conducted.
Setting [3] is: A-375, MTT, 72 h, read-out: IC50.
Setting [4] is: SK-MEL-28, MTT, 72 h, read-out: IC50.

From publication PMC9986241 (Signal Transduction and Targeted Therapy, 2023) come the findings set out here.

Molecules are shown by their SMILES. Where two headings read alike, the source gives them in different places.

For orientation: IC50 means the midpoint of a concentration-inhibition curve. In the case of `CCCS(=O)(=O)Nc1ccc(F)c(C(=O)c2c[nH]c3ncc(-c4ccc(Cl)cc4)cc23)c1F` [Vemurafenib, reference compound], the concentration for half-maximal inhibition (IC50) was 314 ± 73.7 nM in the assay on A375 (BRAF V600E) (setting [3]), more than 20000 nM in the assay on HCT116 (KRAS mut), more than 40000 nM in the assay with SK-MEL-2 (NRAS mut) and 344 ± 36.4 nM in the assay on SK-MEL-28 (BRAF V600E) (setting [4]). Also, the values for the tumor volume entry (with A375 (BRAF V600E) CDX; in assay [1]; with melanoma PDX) were “significant decrease”, “significant decrease” and “did not suppress tumor volume significantly”, respectively. Moreover, the “tumor volume and tumor weight” value in the assay with HCT116 (KRAS mut) CDX and with SK-MEL-2 (NRAS mut) CDX was “poor effect” throughout. In addition, the “activation of MAPK signaling pathway (CRAF, MEK1/2, ERK1/2)” value in [2] (SK-MEL-2 and HCT116, 24 h) is “induced the paradoxical activation of MAPK signaling pathway”.

For `CC(C)(C)c1nc(-c2cccc(NS(=O)(=O)c3c(F)cccc3F)c2F)c(-c2ccnc(N)n2)s1` [Dabrafenib], the 50% inhibitory concentration (IC50) with A375 (BRAF V600E) (A-375, 72 h) is 36.7 ± 9.7 nM; in the assay on HCT116 (KRAS mut) it was more than 18000 nM; in the assay with SK-MEL-2 (NRAS mut), more than 60000 nM; with SK-MEL-28 (BRAF V600E) (SK-MEL-28, 72 h), 41 ± 15.5 nM.

On to `O=C(c1ccc(F)c(F)c1Nc1ccc(I)cc1F)N1CC(O)([C@@H]2CCCCN2)C1` [Cobimetinib], for which the IC50 stood at 3.2 ± 1.3 nM in the assay on A375 (BRAF V600E) (setting [3]), 51.3 ± 8.9 nM in the assay with HCT116 (KRAS mut), 119 ± 38.2 nM in the assay on SK-MEL-2 (NRAS mut) and 2.6 ± 0.4 nM with SK-MEL-28 (BRAF V600E) (setting [4]). The tumor volume result in the assay on melanoma PDX was “no differences between erianin and cobimetinib”. The “phosphorylation of MEK1/2” value in assay [2] (SK-MEL-2 and HCT116, 24 h) is listed as “increased phosphorylation of MEK1/2”. Moreover, the “phosphorylation of ERK1/2” value in [2] (both BRAF V600E and RAS mutant cells, 24 h) is listed as “inhibits phosphorylation of ERK1/2 effectively”.

Regarding `CNc1ncc2cc(-c3cc(NC(=O)NCCC(C)(C)C)c(F)cc3C)c(C)nc2n1` [LY3009120], the “kinase activity of CRAF (phosphorylation of CRAF and MEK1/2)” value in [2] (low dose, 24 h) was “induced kinase activity of CRAF at a low dose”.

On to `COC(=O)N[C@@H](C)CNc1nccc(-c2cn(C(C)C)nc2-c2cc(Cl)cc(NS(C)(=O)=O)c2F)n1` [Encorafenib], for which the half-maximal inhibitory concentration (IC50) is 9.5 ± 3.9 nM in the assay on A375 (BRAF V600E) (setting [3]), more than 2000 nM in the assay with HCT116 (KRAS mut), more than 9000 nM in the assay with SK-MEL-2 (NRAS mut) and 6.5 ± 1.2 nM in the assay on SK-MEL-28 (BRAF V600E) (setting [4]).

With `CC(=O)Nc1cccc(-n2c(=O)n(C3CC3)c(=O)c3c(Nc4ccc(I)cc4F)n(C)c(=O)c(C)c32)c1` [Trametinib], the IC50 is 2.2 ± 0.8 nM in the assay on A375 (BRAF V600E) (setting [3]), 22.1 ± 9.2 nM in the assay with HCT116 (KRAS mut), 50.6 ± 1.7 nM with SK-MEL-2 (NRAS mut) and 1.9 ± 0.2 nM in the assay with SK-MEL-28 (BRAF V600E) (setting [4]).

`Cn1cnc2c(F)c(Nc3ccc(Br)cc3F)c(C(=O)NOCCO)cc21` [Binimetinib]: the half-inhibitory concentration (IC50) was 60.9 ± 14.4 nM with A375 (BRAF V600E) (setting [3]), 509 ± 145 nM in the assay on HCT116 (KRAS mut), 240 ± 81.2 nM with SK-MEL-2 (NRAS mut) and 129 ± 28.3 nM in the assay with SK-MEL-28 (BRAF V600E) (setting [4]).
